In data set [1] the target is T1, M-phase inducer phosphatase 2 (Homo sapiens, UniProt P30305).
T1 sequence (P30305 whole entry): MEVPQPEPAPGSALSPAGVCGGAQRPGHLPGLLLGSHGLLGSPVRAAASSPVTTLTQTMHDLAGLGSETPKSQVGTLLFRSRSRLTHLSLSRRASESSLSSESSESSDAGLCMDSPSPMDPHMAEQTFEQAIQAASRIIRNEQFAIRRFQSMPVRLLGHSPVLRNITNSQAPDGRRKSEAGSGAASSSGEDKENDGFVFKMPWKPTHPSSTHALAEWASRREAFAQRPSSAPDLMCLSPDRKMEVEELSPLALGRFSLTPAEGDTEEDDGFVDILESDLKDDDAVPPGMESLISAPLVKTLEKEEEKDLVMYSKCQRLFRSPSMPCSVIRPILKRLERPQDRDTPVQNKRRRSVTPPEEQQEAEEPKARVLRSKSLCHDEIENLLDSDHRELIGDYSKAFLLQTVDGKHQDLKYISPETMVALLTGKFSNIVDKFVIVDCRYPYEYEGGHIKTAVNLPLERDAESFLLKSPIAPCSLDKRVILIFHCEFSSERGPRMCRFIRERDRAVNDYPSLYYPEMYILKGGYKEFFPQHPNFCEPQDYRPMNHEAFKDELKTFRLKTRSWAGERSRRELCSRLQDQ
The experiment in a line: Inhibition of 6-His-N-terminal tagged human CDC-25B isoform 3 catalytic domain expressed in Escherichia coli BL21 (DE3) cells assessed as pNP formation using pNPP as substrate incubated for 15 mins prior to substrate addition by plate reader analysis.

Data set [2] addresses T2, Tyrosine-protein phosphatase non-receptor type 1 (Homo sapiens, UniProt P18031).
T2 sequence (P18031 whole entry): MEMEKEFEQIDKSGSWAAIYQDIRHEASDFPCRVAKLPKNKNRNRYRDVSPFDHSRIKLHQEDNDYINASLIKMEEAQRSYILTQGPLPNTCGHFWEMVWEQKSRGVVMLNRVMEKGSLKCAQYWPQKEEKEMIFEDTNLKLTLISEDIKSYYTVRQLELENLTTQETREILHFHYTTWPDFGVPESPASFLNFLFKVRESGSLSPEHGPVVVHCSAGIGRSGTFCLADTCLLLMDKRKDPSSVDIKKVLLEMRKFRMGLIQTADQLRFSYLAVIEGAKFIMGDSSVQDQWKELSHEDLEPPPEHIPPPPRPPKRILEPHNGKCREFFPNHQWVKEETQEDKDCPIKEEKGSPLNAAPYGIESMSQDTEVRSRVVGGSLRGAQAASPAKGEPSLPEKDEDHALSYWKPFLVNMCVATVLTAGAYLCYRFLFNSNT
In words: Inhibition of 6-His-N-terminal tagged human PTP1B expressed in Escherichia coli BL21 (DE3) cells assessed as pNP formation using pNPP as substrate incubated for 15 mins prior to substrate addition by plate reader analysis.

Data set [3] is described as follows: Retardation factor of the compound using Hexanes:AcOEt (2:1) as solvent system by column chromatography. The class given is physicochemical.
Data set [4] deals with T3, Low molecular weight phosphotyrosine protein phosphatase (Homo sapiens, UniProt P24666).
T3 sequence (P24666 whole entry): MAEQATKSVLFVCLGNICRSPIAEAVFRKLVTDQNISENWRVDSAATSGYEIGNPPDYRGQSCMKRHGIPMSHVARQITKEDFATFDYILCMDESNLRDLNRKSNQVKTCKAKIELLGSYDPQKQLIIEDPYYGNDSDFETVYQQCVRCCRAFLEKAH
In words: Inhibition of full length 6-His-N-terminal tagged human LMW-PTP expressed in Escherichia coli BL21 (DE3) cells assessed as pNP formation using pNPP as substrate incubated for 15 mins prior to substrate addition by plate reader analysis.

The target in data set [5] is T4, Tyrosine-protein phosphatase non-receptor type 1 (Homo sapiens) (UniProt P18031).
T4 sequence (whole entry): T2 sequence (P18031 whole entry)
In words: Mixed type of inhibition of 6-His-N-terminal tagged human PTP1B expressed in Escherichia coli BL21 (DE3) cells using pNPP as substrate by Lineweaver-Burk plot analysis.

In data set [6] the target is T5, Low molecular weight phosphotyrosine protein phosphatase (Homo sapiens) (UniProt P24666).
T5 sequence (whole entry): T3 sequence (P24666 whole entry)
The experiment in a line: Mixed type of inhibition of full length 6-His-N-terminal tagged human LMW-PTP expressed in Escherichia coli BL21 (DE3) cells using pNPP as substrate by Lineweaver-Burk plot analysis.

Data set [7] in a line: Retardation factor of the compound using CHCl3:MeOH (9:1) as solvent system by column chromatography. The format is physicochemical.
Data set [8] deals with T4, Tyrosine-protein phosphatase non-receptor type 1 (Homo sapiens). The experiment in a line: Time-dependent inhibition of 6-His-N-terminal tagged human PTP1B expressed in Escherichia coli BL21 (DE3) cells using pNPP as substrate treated with compound prior to substrate addition by plate reader analysis. Conditions: TDE = time-dependent effect.
Data set [9] is described as follows: Retardation factor of the compound using Hexanes:AcOEt (1:1) as solvent system by column chromatography. The format is physicochemical.
A short description of data set [10]: Retardation factor of the compound using Hexanes:AcOEt (7:3) as solvent system by column chromatography. The format is physicochemical.
Data set [11] concerns the target T4, Tyrosine-protein phosphatase non-receptor type 1 (Homo sapiens). The experiment in a line: Inhibition of 6-His-N-terminal tagged human PTP1B expressed in Escherichia coli BL21 (DE3) cells assessed as pNP formation using pNPP as substrate incubated for 15 mins prior to substrate addition by plate reader analysis in presence of 25 mM ammonium sulfate.
Data set [12] addresses T5, Low molecular weight phosphotyrosine protein phosphatase (Homo sapiens). In words: Inhibition of full length 6-His-N-terminal tagged human LMW-PTP expressed in Escherichia coli BL21 (DE3) cells assessed as pNP formation using pNPP as substrate at 100 uM incubated for 15 mins prior to substrate addition by plate reader analysis.
Data set [13] has as its target T6, M-phase inducer phosphatase 2 (Homo sapiens) (UniProt P30305).
T6 sequence (whole entry): T1 sequence (P30305 whole entry)
The experiment in a line: Inhibition of 6-His-N-terminal tagged human CDC-25B isoform 3 catalytic domain expressed in Escherichia coli BL21 (DE3) cells assessed as pNP formation using pNPP as substrate at 100 uM incubated for 15 mins prior to substrate addition by plate reader analysis.

The target of data set [14] is T5, Low molecular weight phosphotyrosine protein phosphatase (Homo sapiens). The experiment in a line: Binding affinity to full length 6-His-N-terminal tagged human LMW-PTP expressed in Escherichia coli BL21 (DE3) cells assessed as protein aggregate formation up to 100 uM after 1 hr by native PAGE analysis.
Data set [15] addresses T4, Tyrosine-protein phosphatase non-receptor type 1 (Homo sapiens). The experiment in a line: Binding affinity to 6-His-N-terminal tagged human PTP1B expressed in Escherichia coli BL21 (DE3) cells after 3 hrs by tryptophan emission monitoring analysis.
Data set [16] shares this target. The experiment in a line: Binding affinity to 6-His-N-terminal tagged human PTP1B expressed in Escherichia coli BL21 (DE3) cells assessed as protein aggregate formation up to 100 uM after 1 hr by native PAGE analysis.
Data set [17] addresses Lysozyme C (Gallus gallus) (UniProt P00698). The experiment in a line: Binding affinity to hen egg lysozyme after 3 hrs by tryptophan emission monitoring analysis.
In data set [18] the target is Albumin (Bos taurus, UniProt P02769). The experiment in a line: Binding affinity to bovine serum albumin after 3 hrs by tryptophan emission monitoring analysis. Conditions: cattle.
Sequence of Albumin (P02769 whole entry): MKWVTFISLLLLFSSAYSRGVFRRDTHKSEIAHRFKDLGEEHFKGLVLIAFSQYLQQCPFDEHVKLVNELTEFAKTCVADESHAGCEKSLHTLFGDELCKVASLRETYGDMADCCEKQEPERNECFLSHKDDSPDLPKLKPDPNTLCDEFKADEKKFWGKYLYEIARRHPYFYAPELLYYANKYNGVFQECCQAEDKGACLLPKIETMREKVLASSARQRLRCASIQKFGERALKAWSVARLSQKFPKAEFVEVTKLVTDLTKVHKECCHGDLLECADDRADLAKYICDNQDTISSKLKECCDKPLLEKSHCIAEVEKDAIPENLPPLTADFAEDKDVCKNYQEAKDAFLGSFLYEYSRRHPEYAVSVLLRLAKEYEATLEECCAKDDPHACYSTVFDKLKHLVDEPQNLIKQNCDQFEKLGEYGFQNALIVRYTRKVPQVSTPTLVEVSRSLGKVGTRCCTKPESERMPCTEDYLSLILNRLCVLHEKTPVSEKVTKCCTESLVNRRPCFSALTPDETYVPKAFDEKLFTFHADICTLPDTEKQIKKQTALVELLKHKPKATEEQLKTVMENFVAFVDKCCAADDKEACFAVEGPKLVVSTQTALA
The target in data set [19] is T5, Low molecular weight phosphotyrosine protein phosphatase (Homo sapiens). The experiment in a line: Binding affinity to full length 6-His-N-terminal tagged human LMW-PTP expressed in Escherichia coli BL21 (DE3) cells after 3 hrs by tryptophan emission monitoring analysis.
Data set [20] deals with T4, Tyrosine-protein phosphatase non-receptor type 1 (Homo sapiens). Conditions: BL21-DE3, 5 uM.
Description: Reversible inhibition of 6-His-N-terminal tagged human PTP1B expressed in Escherichia coli BL21 (DE3) cells using pNPP as substrate at 5 uM incubated for 15 mins prior to substrate addition measured after drug wash out by plate reader analysis
Data set [21] addresses T6, M-phase inducer phosphatase 2 (Homo sapiens). The experiment in a line: Inhibition of 6-His-N-terminal tagged human CDC-25B isoform 3 catalytic domain expressed in Escherichia coli BL21 (DE3) cells assessed as pNP formation using pNPP as substrate at 100 uM by plate reader analysis in presence of 50 mM MgCl2.
Data set [22] deals with T5, Low molecular weight phosphotyrosine protein phosphatase (Homo sapiens). The experiment in a line: Inhibition of full length 6-His-N-terminal tagged human LMW-PTP expressed in Escherichia coli BL21 (DE3) cells assessed as pNP formation using pNPP as substrate at 100 uM by plate reader analysis in presence of 50 mM MgCl2.
The nature of data set [23]: Retardation factor of the compound using Hexanes:AcOEt (1:2) as solvent system by column chromatography. The class given is physicochemical.

Activity calls are given as the source filed them. No cut-off for these calls is given here.

The text below walks through data of ChEMBL document CHEMBL3425400, “Is RK-682 a promiscuous enzyme inhibitor? Synthesis and in vitro evaluation of protein tyrosine phosphatase inhibition of racemic RK-682 and analogues” (Eur J Med Chem, 2015).

As usually defined, the IC50 is the concentration needed to halve the response being measured.

Sequence of Lysozyme C (Gallus gallus) (P00698 whole entry): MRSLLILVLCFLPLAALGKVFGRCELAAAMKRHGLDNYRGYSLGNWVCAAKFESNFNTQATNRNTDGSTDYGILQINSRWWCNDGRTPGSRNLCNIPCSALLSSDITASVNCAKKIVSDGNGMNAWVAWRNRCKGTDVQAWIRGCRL

`CCCCCCCCCCCCCCCC(=O)C1=C(O)OC(C)(CC)OC1=O` (stereo unspecified): the IC50 was 5.5 µM in data set [1], 0.8 µM in data set [2] and 29.3 µM in [4]. Moreover, the Rf in data set [3] stood at 0.42.

As for `CCCCCCCCCCCCCCCC(=O)C1=C(O)CC(CO)OC1=O` (stereo unspecified), the inhibition entry in [5] and in [6] was “Active” each time. Further, the IC50 was 13.6 µM in data set [1], 15.6 µM in data set [2] and more than 100 µM in [4]. The same compound gave a Rf in data set [7] of 0.5. In addition, the inhibition result in [8] is “tde”.

As for `CCCCCCCCCCCCCCCC(=O)C1=C(O)C(COC(C)=O)OC1=O` (stereo unspecified), the IC50 came out at 10.8 µM in data set [1], 0.4 µM in [2] and 10 µM in [4].

In the case of `CCCCCCCCCCCCCCCCCC(=O)C1=C(O)OC(C)(C)OC1=O`, the Rf in data set [9] worked out at 0.51. Besides, the figures for the 50% inhibitory concentration (IC50) in data set [1], in [2] and in data set [4] were 6.5 µM, 0.6 µM and 5.3 µM, respectively.

In data set [10], `CCCCCCCCCCCCCCCC(=O)C1=C(O)CC(COCc2ccccc2)OC1=O` (stereo unspecified) displayed a Rf of 0.71. In addition, the values for the half-inhibitory concentration (IC50) in data set [1], in [2] and in data set [4] were 7.2 µM, 5.6 µM and more than 100 µM, respectively.

In the case of `CCCCCCCCCCCCCCCC(=O)C1=C(O)C(COS(C)(=O)=O)OC1=O` (stereo unspecified), the IC50 in data set [1] was 8 µM; in [2], 0.4 µM; in data set [4], 3.3 µM.

As for `C=C1OC(=O)C(C(=O)CCCCCCCCCCCCCCC)=C1O`, the IC50 in [1] was 7.4 µM; in data set [2], 0.4 µM; in data set [4], 2.5 µM.

For the compound `CCCCCCCCCCCCCCCC(=O)C1=C(O)C(COC(=O)c2ccccc2C(=O)c2ccccc2)OC1=O` (stereo unspecified), the IC50 is 6.3 µM in [1], 0.5 µM in [2] and 10.1 µM in data set [4].

In the case of `CCCCCCCCCCCCCCCC(=O)C1=C(O)OC2(CCCC2)OC1=O`, the IC50 in [1] stood at 7 µM; in data set [2] it was 0.8 µM; in data set [4], 9.6 µM. This compound returned a Rf in data set [3] of 0.59.

On to `CCCCCCCCCCCCCCCC(=O)C1=C(O)OC(C)(C)OC1=O`, for which the inhibition entry in [5] and in [6] was “Active” each time. The same compound showed a Rf in [9] of 0.5. Also, the results for the IC50 in data set [1], in [2] and in data set [4] were 13.7 µM, 1 µM and 22 µM, respectively. For the same compound, the inhibition result in data set [11] is “inactive”. For the same compound, the inhibition result in data set [8] was “tde”.

In the case of `CC(=O)C1=C(O)OC(C)(C)OC1=O`, in data set [2], the concentration for half-maximal inhibition (IC50) was more than 100 µM. Moreover, the inhibition result in data set [12] and in data set [13] was “inactive” each time.

`CCCCCCCCCCCCCCCC(=O)OC1=CC(=O)OC(COCc2ccccc2)C1` (stereo unspecified): the result in data set [14] and in data set [16] was inactive. The Rf in [10] stood at 0.72. For the same compound, the IC50 in data set [1] is more than 100 µM; in [2], 8.2 µM; in data set [4], more than 100 µM. Further, the result in data set [15], in [17] and in data set [19] was Active. The result in data set [18] was Active.

In the case of `CCCCCCCCCCCCCCCC(=O)C1=C(O)C(CO)OC1=O` (racemic), the result in [14], in [15], in [16], in data set [17] and in [19] was Active. Also, the inhibition entry in [5], in data set [6] and in [20] was “Active” throughout. The concentration for half-maximal inhibition (IC50) in [1] amounted to 12.4 µM; in data set [2], 0.7 µM; in data set [4], 8.6 µM. Besides, the inhibition result in data set [11], in [21] and in data set [22] was “inactive” in each case. In addition, the result in [18] was Active. Moreover, the inhibition result in data set [8] was “tde”.

For `CCCCCCCCCC(=O)C1=C(O)OC(C)(C)OC1=O`, the IC50 in data set [1] is more than 100 µM; in data set [2] it was 28.7 µM; in data set [4], more than 100 µM. This compound yielded a Rf in [3] of 0.49.

On to `CCCCCCCCCCCCCCCC(=O)C1=C(O)C(COC(=O)c2ccc(C(=O)c3ccccc3)cc2)OC1=O` (stereo unspecified), for which the IC50 in data set [1] came out at 5.9 µM; in [2], 0.3 µM; in [4], 3.8 µM.

With `CCCCCCCCCCCCCCCC(=O)C1=C(O)OC(CC)(CC)OC1=O`, the IC50 in [1] is 4.6 µM; in data set [2] it was 1.1 µM; in [4], more than 100 µM. In [3], this compound displayed a Rf of 0.59.

For `CC(C)C(=O)C1=C(O)OC(C)(C)OC1=O`, the IC50 in data set [1] was more than 100 µM; in [2], 72.7 µM. This compound also yielded a Rf in [23] of 0.5. The inhibition result in data set [12] was “inactive”.

In the case of `CCCC(=O)C1=C(O)OC(C)(C)OC1=O`, in data set [2], the IC50 is more than 100 µM. In data set [23], the Rf came to 0.47. For the same compound, the inhibition result in data set [12] and in data set [13] was “inactive” throughout.
